Results as given in ChEMBL document CHEMBL1148788 (J Med Chem, 2007).

Key:
[1] = target: Neuronal acetylcholine receptor; alpha4/beta4 (Rattus norvegicus, UniProt P09483+P12392); assay: Displacement of [3H]epibatidine from recombinant rat alpha-4-beta-4 nAChr in HEK293 cell line; format: cell-based; settings: for pKi: hek293
[2] = target: Neuronal acetylcholine receptor; alpha4/beta2 (Rattus norvegicus, UniProt P09483+P12390); assay: Displacement of [3H]epibatidine from rat recombinant alpha-4-beta-2 nAChR in HEK293 cell line; format: cell-based; settings: for pKi: hek293; for Ki: read-out: Ki
Sequence of Neuronal acetylcholine receptor; alpha4/beta2 (P09483 whole entry): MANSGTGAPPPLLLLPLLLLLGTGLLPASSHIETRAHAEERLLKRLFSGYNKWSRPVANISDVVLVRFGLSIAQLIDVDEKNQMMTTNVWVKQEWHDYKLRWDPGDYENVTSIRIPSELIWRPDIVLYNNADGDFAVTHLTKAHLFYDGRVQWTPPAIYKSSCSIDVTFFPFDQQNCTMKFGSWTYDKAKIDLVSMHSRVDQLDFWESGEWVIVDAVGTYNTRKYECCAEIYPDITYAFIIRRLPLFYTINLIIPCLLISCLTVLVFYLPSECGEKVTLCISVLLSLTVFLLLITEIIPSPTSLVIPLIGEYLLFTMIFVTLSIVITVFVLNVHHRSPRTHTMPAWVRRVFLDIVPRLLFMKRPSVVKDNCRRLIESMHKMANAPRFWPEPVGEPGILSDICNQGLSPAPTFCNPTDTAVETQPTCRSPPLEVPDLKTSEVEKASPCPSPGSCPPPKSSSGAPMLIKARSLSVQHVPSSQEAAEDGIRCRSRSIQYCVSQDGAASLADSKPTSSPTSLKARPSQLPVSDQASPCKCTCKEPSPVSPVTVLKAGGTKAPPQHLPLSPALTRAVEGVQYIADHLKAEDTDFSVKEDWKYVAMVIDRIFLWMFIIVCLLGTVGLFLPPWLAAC
Sequence of Neuronal acetylcholine receptor; alpha4/beta2 (P12390 whole entry): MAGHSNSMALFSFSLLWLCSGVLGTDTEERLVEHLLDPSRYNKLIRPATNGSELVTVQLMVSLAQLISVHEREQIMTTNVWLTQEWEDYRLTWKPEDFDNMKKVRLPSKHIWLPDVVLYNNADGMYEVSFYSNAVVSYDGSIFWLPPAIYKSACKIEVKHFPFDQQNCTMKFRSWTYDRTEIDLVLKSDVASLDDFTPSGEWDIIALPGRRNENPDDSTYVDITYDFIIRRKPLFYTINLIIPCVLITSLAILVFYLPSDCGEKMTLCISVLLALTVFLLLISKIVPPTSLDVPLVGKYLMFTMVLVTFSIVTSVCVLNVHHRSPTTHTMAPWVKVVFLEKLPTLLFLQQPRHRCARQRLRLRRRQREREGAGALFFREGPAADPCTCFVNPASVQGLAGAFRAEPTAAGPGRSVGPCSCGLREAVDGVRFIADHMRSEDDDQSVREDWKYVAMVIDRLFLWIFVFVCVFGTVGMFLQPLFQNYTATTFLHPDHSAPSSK

[3] = target: T1, Neuronal acetylcholine receptor; alpha3/beta4 (Rattus norvegicus, UniProt P04757+P12392); assay: Antagonist activity at rat alpha3beta4 nAChR expressed in HEK293 cells by FMP assay; format: functional, cell-based, Homo sapiens; settings: for pIC50: hek293
T1 sequence (P04757 whole entry): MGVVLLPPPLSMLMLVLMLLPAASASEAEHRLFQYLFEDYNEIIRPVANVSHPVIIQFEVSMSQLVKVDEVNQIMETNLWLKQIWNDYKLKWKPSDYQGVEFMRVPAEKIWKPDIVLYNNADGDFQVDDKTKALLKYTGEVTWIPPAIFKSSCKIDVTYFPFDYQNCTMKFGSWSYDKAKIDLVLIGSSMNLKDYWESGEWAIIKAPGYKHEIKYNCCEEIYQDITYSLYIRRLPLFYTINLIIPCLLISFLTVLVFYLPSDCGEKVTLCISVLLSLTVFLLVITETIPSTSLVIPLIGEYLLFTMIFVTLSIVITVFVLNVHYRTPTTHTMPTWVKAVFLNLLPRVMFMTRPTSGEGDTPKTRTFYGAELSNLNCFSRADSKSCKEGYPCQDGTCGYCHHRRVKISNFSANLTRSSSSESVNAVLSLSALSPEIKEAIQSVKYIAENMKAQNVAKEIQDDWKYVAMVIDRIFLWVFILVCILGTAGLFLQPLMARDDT
T1 sequence (P12392 whole entry): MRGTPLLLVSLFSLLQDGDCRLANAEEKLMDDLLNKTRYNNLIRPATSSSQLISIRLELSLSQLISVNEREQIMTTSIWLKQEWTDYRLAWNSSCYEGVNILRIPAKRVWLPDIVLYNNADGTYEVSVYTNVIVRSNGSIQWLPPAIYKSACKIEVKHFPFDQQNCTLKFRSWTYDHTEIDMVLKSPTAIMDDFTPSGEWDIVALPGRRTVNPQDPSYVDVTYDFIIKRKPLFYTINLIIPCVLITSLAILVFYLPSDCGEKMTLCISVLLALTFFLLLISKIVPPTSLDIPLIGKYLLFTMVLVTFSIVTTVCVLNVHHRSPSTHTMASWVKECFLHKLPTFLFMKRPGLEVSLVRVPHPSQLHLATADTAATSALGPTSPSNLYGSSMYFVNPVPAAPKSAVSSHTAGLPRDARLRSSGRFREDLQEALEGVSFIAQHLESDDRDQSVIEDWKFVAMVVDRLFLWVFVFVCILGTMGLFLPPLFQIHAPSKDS

[4] = target: T2, Glycine receptor subunit alpha-1 (Homo sapiens, UniProt P23415); assay: Antagonist activity at human glycine alpha-1 receptor in HEK293 cells by FMP assay; format: functional, cell-based; settings: for pIC50: hek293
T2 sequence (P23415 whole entry): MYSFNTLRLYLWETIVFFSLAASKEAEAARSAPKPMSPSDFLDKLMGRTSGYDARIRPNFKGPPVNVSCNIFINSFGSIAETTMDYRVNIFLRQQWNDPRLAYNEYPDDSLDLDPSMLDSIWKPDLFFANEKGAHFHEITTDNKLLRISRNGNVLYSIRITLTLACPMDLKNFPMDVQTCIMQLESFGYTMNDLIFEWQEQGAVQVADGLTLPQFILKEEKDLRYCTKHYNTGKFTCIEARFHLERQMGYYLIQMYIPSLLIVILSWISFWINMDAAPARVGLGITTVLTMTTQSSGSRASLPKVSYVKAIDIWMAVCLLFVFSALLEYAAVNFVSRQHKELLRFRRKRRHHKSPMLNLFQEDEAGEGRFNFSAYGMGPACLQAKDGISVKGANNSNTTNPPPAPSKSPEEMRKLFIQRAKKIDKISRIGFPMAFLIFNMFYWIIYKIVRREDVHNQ

[5] = target: T3, Neuronal acetylcholine receptor subunit alpha-7 (Homo sapiens, UniProt P36544); assay: Antagonist activity at human alpha-7 nAChR in tsA201 cells coexpressed with Ric3 by FMP assay; format: functional, cell-based
T3 sequence (P36544 whole entry): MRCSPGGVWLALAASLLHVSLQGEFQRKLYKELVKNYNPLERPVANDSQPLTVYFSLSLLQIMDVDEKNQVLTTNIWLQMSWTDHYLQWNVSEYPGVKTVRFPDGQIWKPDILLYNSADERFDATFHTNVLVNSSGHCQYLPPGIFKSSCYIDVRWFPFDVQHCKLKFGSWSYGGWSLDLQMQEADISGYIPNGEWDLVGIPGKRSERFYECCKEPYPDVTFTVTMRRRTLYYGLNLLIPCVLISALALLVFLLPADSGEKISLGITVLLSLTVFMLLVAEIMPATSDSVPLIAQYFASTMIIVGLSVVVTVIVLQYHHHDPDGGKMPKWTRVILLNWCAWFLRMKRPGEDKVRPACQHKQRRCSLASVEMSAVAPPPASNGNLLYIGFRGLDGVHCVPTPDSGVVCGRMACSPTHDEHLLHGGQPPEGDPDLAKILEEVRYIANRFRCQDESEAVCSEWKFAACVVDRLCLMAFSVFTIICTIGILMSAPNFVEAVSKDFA

[6] = target: T3, Neuronal acetylcholine receptor subunit alpha-7; assay: Displacement of [3H]methyllycaconitine from alpha7 nAChR in tsA201 cells co-expressed with Ric3; format: cell-based
[7] = target: T4, 5-hydroxytryptamine receptor 3A (Homo sapiens, UniProt P46098); assay: Antagonist activity at human 5HT3A receptor expressed in HEK293 cells by FMP assay; format: functional, cell-based; settings: for pIC50: hek293; for IC50: read-out: IC50
T4 sequence (P46098 whole entry): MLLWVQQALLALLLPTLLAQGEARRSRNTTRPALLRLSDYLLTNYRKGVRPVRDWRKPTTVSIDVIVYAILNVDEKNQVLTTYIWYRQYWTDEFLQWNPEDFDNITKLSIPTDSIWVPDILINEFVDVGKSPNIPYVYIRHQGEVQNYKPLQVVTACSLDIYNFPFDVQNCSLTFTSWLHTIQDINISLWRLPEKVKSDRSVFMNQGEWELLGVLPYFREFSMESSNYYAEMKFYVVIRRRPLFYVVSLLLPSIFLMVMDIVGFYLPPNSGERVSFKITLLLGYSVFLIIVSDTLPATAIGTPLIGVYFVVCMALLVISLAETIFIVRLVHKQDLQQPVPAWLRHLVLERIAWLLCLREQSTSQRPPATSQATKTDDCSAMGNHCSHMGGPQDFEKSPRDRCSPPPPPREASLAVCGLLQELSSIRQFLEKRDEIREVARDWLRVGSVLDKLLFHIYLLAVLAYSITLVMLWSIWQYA

[8] = target: T3, Neuronal acetylcholine receptor subunit alpha-7; assay: Displacement of [3H]methyllycaconitine from human alpha-7 in tsA201 cells coexpressed with 5HT3A receptor; format: cell-based
[9] = target: T4, 5-hydroxytryptamine receptor 3A; assay: Displacement of [3H]GR65630 from human 5HT3A receptor in HEK293 cells; format: cell-based; settings: for pKi: hek293
cells = format: functional, cell-based; settings: Homo sapiens, HEK293
[10] = target: T1, Neuronal acetylcholine receptor; alpha3/beta4; assay: Displacement of [3H]epibatidine from recombinant rat alpha-3-beta-4 nAChr in HEK293 cell line; format: cell-based; settings: for pKi: hek293

Sequence of Neuronal acetylcholine receptor; alpha4/beta4 (P09483 whole entry): as the sequence (P09483 whole entry) above
Sequence of Neuronal acetylcholine receptor; alpha4/beta4 (P12392 whole entry): as the sequence (P12392 whole entry) above

Row | Structure (SMILES) | Ki [1] | pKi [1] | pKi [2] | Ki [2] | IC50 ([3]; read-out: IC50) | IC50 [4] | pIC50 [4] | IC50 ([5]; read-out: IC50) | IC50 ([5]; read-out: pIC50 (converted)) | Ki ([6]; read-out: Ki) | Ki ([6]; read-out: pKi (converted)) | IC50 [7] | Ki ([8]; read-out: Ki) | Ki ([8]; read-out: pKi (converted)) | Ki [9] | IC50 (cells; read-out: IC50) | IC50 (cells; read-out: pIC50 (converted)) | Ki [10] | pKi [10] | further results
1 | C=CC[N+](C)(C)Cc1c2n(c3ccccc13)Cc1c(C[N+](C)(C)CC=C)c3ccccc3n1C2.[Br-].[Br-] | > 100 µM | < 4 | < 4 | > 100 µM | > 100 µM | > 100 µM | < 4 | 30 µM | 100 µM | 2.9 µM | 3.16 µM | > 100 µM | 4.4 µM | 3.98 µM | > 100 µM | > 100 µM | > 100 µM | > 100 µM | < 4 | pIC50 [3]: < 4; pIC50 [7]: < 4; pKi [9]: < 4
2 | COc1ccc(C[N+]23CC[C@@H]4[C@@H]5/C(=C\N6c7ccccc7[C@@]78CC[N+]9(Cc%10ccc(OC)c(OC)c%10)CC%10=CCO[C@H]([C@@H]([C@H]67)[C@H]%10C[C@@H]89)N5c5ccccc5)[C@@H](C[C@@H]42)/C(=C\CO)C3)cc1OC.[Cl-].[Cl-] (some centres not stated) | > 100 µM | < 4 | < 4 | > 100 µM | 100 µM | > 100 µM | < 4 | 2.6 µM | 2.63 µM | 0.2 µM | 0.2 µM | 30 µM | 0.27 µM | 0.251 µM | 100 µM | > 100 µM | > 100 µM | > 100 µM | < 4 | IC50 ([3]; read-out: pIC50 (converted)): 31.6 µM
3 | C/C=C/C[N+]12CC[C@@H]3[C@@H]4[C@@H]5[C@@H](OCC=C(C1)[C@@H]5C[C@@H]32)N1c2ccccc2[C@@]23CC[N+]5(C/C=C/C)CC6=CCO[C@H]([C@@H]([C@H]12)[C@H]6C[C@@H]35)N4c1ccccc1.[Br-].[Br-] (some centres not stated) | > 100 µM | < 4 | < 4 | > 100 µM | 100 µM | > 100 µM | < 4 | 1.1 µM | 1.15 µM | 0.1 µM | – | 100 µM | 0.23 µM | 0.251 µM | 15 µM | > 100 µM | > 100 µM | 100 µM | – | pKi ([6]; tsa201): 7
4 | C=CC[N+]12CC[C@@H]3[C@@H]4[C@@H]5[C@@H](OCC=C(C1)[C@@H]5C[C@@H]32)N1c2ccccc2[C@@]23CC[N+]5(CC=C)CC6=CCO[C@H]([C@@H]([C@H]12)[C@H]6C[C@@H]35)N4c1ccccc1.[Br-].[Br-] (some centres not stated) | > 100 µM | < 4 | < 4 | > 100 µM | 100 µM | > 100 µM | < 4 | 0.28 µM | 0.282 µM | 0.03 µM | 0.0316 µM | 100 µM | 0.066 µM | 0.0631 µM | 100 µM | > 100 µM | > 100 µM | > 100 µM | < 4 | –
5 | OC/C=C1/CN2CC[C@H]3[C@@H]2C[C@@H]1/C1=C/N2c4ccccc4[C@@]45CCN6CC7=CCO[C@H]([C@@H]([C@H]24)[C@H]7C[C@H]65)N(c2ccccc2)[C@@H]13 | > 100 µM | < 4 | < 4 | > 100 µM | 16 µM | > 100 µM | < 4 | 1.5 µM | 1.51 µM | 1.7 µM | 1.58 µM | 2.5 µM | 1.2 µM | 1.26 µM | 1.9 µM | > 100 µM | > 100 µM | 30 µM | – | –
6 | OC/C=C1/C[N+]2(C3C=CCCC3)CC[C@@H]3[C@@H]4/C(=C\N5c6ccccc6[C@@]67CC[N+]8(C9C=CCCC9)CC9=CCO[C@H]([C@@H]([C@H]56)[C@H]9C[C@@H]78)N4c4ccccc4)[C@H]1C[C@@H]32.[Br-].[Br-] (some centres not stated) | > 100 µM | < 4 | < 4 | > 100 µM | 30 µM | > 100 µM | < 4 | 2.3 µM | 2.34 µM | 0.23 µM | 0.251 µM | 30 µM | 0.36 µM | 0.316 µM | 40 µM | > 100 µM | > 100 µM | 100 µM | – | –
7 | CC(=O)OCC[N+]12CC[C@@H]3[C@@H]4[C@@H]5[C@@H](OCC=C(C1)[C@@H]5C[C@@H]32)N1c2ccccc2[C@@]23CC[N+]5(CCOC(C)=O)CC6=CCO[C@H]([C@@H]([C@H]12)[C@H]6C[C@@H]35)N4c1ccccc1.[Br-].[Br-] (some centres not stated) | > 100 µM | < 4 | < 4 | > 100 µM | > 100 µM | > 100 µM | < 4 | 1.6 µM | 1.62 µM | 0.31 µM | 0.316 µM | > 100 µM | 0.28 µM | 0.251 µM | > 100 µM | > 100 µM | > 100 µM | > 100 µM | < 4 | pIC50 [3]: < 4; pIC50 [7]: < 4; pKi [9]: < 4
